System: Rhizoctonia solani
Test: Soybean seed treatment test in soil contaminated by Rhizoctonia solani (disease control efficacy)
Assay type: in vivo, Rhizoctonia solani on soybean (variety: Natto shoryu)
Conditions: seed treatment with carboxamide compound alone 0.2 g/100 kg of seeds; soybean cultivated 20 days in contaminated soil; versus non-treated plot
Procedure: A cyclohexanone solution (100 microL) containing prescribed amount (weight) of a test compound was applied on seeds of soybean (variety: Natto shoryu) (10 g) by using a rotary apparatus for seed treatment (Seed dresser, manufactured by Hans-Ulrich Hege GmbH).
One day after the treatment, plastic pot was filled with soil contaminated by Rhizoctonia solani, and the seeds treated with the test compounds were seeded in the soil and cultivated in a glass-greenhouse for 20 days (hereinafter referred to as “treated plot”).
Thereafter, the presence of disease caused by Rhizoctonia solani in the young plants which germinated from each seed was observed and disease severity was calculated according to the following calculation formula (1).
On the other hand, seeds of soybean which were not treated as above were cultivated in the same way as above (hereinafter referred to as “non-treated plot”) and the disease severity in “non-treated plot” was calculated in the same way as above “treated plot”. On the basis of the above disease severity in “treated plot” and “non-treated plot”, efficacy in “treated plot” was evaluated according to the following calculation formula (2). […]

`CC1CC(C)(C)c2cccc(NC(=O)c3cn(C)nc3C(F)F)c21` (stereo not shown) [carboxamide compound (I)] was tested, and the “efficacy (%)” value was 42.1%.

From US9232797B2, “Pesticidal composition and its use” (SUMITOMO CHEMICAL COMPANY, LIMITED, priority 2010, dated 2016)
